# Biological target: Histone deacetylase 1 (Homo sapiens, UniProt Q13547)
# Assay: Inhibition of HDAC1 (unknown origin) by fluorescence based assay
# Conditions: not given
# Sequence of Histone deacetylase 1 (Q13547 whole entry): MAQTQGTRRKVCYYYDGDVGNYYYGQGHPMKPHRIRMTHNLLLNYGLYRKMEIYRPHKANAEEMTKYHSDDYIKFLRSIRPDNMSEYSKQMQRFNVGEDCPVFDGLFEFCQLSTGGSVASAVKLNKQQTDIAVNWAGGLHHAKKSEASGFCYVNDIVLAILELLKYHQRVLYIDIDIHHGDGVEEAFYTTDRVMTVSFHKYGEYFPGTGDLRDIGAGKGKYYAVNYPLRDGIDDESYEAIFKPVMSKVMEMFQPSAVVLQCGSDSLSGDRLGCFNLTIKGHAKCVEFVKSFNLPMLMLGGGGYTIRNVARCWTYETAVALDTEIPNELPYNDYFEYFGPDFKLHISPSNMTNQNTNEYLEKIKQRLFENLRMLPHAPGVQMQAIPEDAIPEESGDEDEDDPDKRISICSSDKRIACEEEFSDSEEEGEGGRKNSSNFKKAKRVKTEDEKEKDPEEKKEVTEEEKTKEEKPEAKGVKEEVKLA
row,Compound,IC50 [nM]
1,Cn1cc(-c2cccc(F)c2)c2cc(C(=O)NCc3ccc(C(=O)Nc4ccccc4N)cc3)[nH]c2c1=O,53.1
2,COc1ccc(C(C)(C)O)cc1-c1cn(C)c(=O)c2[nH]c(C(=O)NCc3ccc(C(=O)Nc4ccccc4N)cc3)cc12,333
3,Cn1cc(-c2ccccc2Oc2ccccc2)c2cc(C(=O)NCCCCC(=O)Nc3ccccc3N)[nH]c2c1=O,> 500
4,Cn1cc(-c2cc(C(C)(C)O)ccc2OC2CC2)c2cc(C(=O)NCc3ccc(C(=O)NO)cc3)[nH]c2c1=O,20.8
5,Cn1cc(-c2cc(C(C)(C)O)ccc2OC2CC2)c2cc(C(=O)NCc3ccc(C(=O)Nc4ccccc4N)cc3)[nH]c2c1=O,68.8
6,Cn1cc(-c2cc(C(C)(C)O)ccc2Oc2ccc(F)cc2F)c2cc(C(=O)NCCCCCCC(=O)NO)[nH]c2c1=O,52
7,Cn1cc(-c2ccccc2C(F)(F)F)c2cc(C(=O)NCc3ccc(C(=O)Nc4ccccc4N)cc3)[nH]c2c1=O,210
8,Cn1cc(-c2ccccc2Oc2ccccc2)c2cc(C(=O)NCCCC(=O)NO)[nH]c2c1=O,> 500
9,CCNC(=O)c1cc2c(-c3cc(C(C)(C)O)ccc3Oc3c(C)cc(F)cc3C)cn(C)c(=O)c2[nH]1 [ABBV-744],> 10000
10,Cn1cc(-c2cc(C(C)(C)O)ccc2OC2CC2)c2cc(C(=O)NCCCCCCC(=O)NO)[nH]c2c1=O,29.8
11,Cn1cc(-c2ccccc2F)c2cc(C(=O)NCc3ccc(C(=O)Nc4ccccc4N)cc3)[nH]c2c1=O,20.8
12,COc1ccccc1-c1cn(C)c(=O)c2[nH]c(C(=O)NCc3ccc(C(=O)Nc4ccccc4N)cc3)cc12,57.6
13,Cn1cc(-c2ccccc2Oc2ccccc2)c2cc(C(=O)NCCCCCC(=O)Nc3ccccc3N)[nH]c2c1=O,176
14,Cc1cccc(-c2cn(C)c(=O)c3[nH]c(C(=O)NCc4ccc(C(=O)Nc5ccccc5N)cc4)cc23)c1,54.9
15,Cn1cc(-c2ccc(F)cc2)c2cc(C(=O)NCc3ccc(C(=O)Nc4ccccc4N)cc3)[nH]c2c1=O,47.3
16,Cc1sc2c(c1C)C(c1ccc(Cl)cc1)=N[C@@H](CC(=O)Nc1ccc(O)cc1)c1nnc(C)n1-2 [BIRABRESIB],> 10000
17,Cn1cc(-c2ccccc2Oc2ccccc2)c2cc(C(=O)NCCCCCCC(=O)Nc3ccccc3N)[nH]c2c1=O,> 500

# Biological target: T1, Protein deacetylase HDAC6 (Homo sapiens, UniProt Q9UBN7)
# T1 sequence (Q9UBN7 whole entry): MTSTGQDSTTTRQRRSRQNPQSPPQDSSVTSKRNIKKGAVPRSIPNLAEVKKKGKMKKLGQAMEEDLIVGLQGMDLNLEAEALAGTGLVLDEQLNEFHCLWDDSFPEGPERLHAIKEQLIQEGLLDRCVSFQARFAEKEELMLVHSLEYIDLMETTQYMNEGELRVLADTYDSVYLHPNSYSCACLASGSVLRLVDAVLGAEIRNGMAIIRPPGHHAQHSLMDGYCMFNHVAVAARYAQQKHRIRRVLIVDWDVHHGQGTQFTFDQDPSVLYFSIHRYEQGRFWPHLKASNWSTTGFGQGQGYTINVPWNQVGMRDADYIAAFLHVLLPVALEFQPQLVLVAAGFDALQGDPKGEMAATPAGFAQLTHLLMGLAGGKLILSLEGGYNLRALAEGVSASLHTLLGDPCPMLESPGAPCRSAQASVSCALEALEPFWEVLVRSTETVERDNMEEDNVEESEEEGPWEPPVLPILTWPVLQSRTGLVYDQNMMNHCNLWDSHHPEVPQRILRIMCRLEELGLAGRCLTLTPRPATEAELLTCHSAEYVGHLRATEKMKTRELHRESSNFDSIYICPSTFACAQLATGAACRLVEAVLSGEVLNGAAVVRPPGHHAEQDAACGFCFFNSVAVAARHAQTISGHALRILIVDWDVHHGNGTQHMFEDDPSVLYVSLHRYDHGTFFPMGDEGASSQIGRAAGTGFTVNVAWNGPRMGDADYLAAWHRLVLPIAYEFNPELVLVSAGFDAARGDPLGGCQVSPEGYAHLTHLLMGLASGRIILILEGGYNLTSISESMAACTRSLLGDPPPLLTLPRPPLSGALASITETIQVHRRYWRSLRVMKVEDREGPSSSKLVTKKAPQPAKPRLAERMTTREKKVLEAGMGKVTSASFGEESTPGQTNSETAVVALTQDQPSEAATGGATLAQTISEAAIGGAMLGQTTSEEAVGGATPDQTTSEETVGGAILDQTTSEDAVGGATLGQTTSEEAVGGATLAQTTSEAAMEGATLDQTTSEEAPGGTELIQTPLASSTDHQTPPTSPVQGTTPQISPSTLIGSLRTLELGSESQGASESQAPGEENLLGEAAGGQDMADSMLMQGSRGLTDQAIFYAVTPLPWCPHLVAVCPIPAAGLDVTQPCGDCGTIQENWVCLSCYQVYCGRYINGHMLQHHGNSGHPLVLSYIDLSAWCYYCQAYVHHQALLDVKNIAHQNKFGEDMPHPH
# Assay: Inhibition of HDAC6 (unknown origin) by fluorescence based assay
# Conditions: not given
row,Compound,IC50 [nM]
1,Cn1cc(-c2ccccc2Oc2ccccc2)c2cc(C(=O)NCCCCC(=O)Nc3ccccc3N)[nH]c2c1=O,> 500
2,Cn1cc(-c2cc(C(C)(C)O)ccc2OC2CC2)c2cc(C(=O)NCc3ccc(C(=O)NO)cc3)[nH]c2c1=O,7.9
3,Cn1cc(-c2cc(C(C)(C)O)ccc2Oc2ccc(F)cc2F)c2cc(C(=O)NCCCCCCC(=O)NO)[nH]c2c1=O,8.7
4,Cn1cc(-c2ccccc2Oc2ccccc2)c2cc(C(=O)NCCCC(=O)NO)[nH]c2c1=O,144
5,CCNC(=O)c1cc2c(-c3cc(C(C)(C)O)ccc3Oc3c(C)cc(F)cc3C)cn(C)c(=O)c2[nH]1 [ABBV-744],> 10000
6,Cn1cc(-c2cc(C(C)(C)O)ccc2OC2CC2)c2cc(C(=O)NCCCCCCC(=O)NO)[nH]c2c1=O,5.5
7,Cn1cc(-c2ccccc2Oc2ccccc2)c2cc(C(=O)NCCCCCC(=O)Nc3ccccc3N)[nH]c2c1=O,> 500
8,Cc1sc2c(c1C)C(c1ccc(Cl)cc1)=N[C@@H](CC(=O)Nc1ccc(O)cc1)c1nnc(C)n1-2 [BIRABRESIB],> 10000
9,Cn1cc(-c2ccccc2Oc2ccccc2)c2cc(C(=O)NCCCCCCC(=O)Nc3ccccc3N)[nH]c2c1=O,> 500

# Tested on: MV4-11
# Assay: Antiproliferative activity against human MV4-11 cells assessed as cell viability after 72 hrs by CCK8 assay
# Type: functional, cell-based
# Conditions: MV4-11, 72 h
row,Compound,IC50 [nM]
1,Cn1cc(-c2cccc(F)c2)c2cc(C(=O)NCc3ccc(C(=O)Nc4ccccc4N)cc3)[nH]c2c1=O,210
2,COc1ccc(C(C)(C)O)cc1-c1cn(C)c(=O)c2[nH]c(C(=O)NCc3ccc(C(=O)Nc4ccccc4N)cc3)cc12,420
3,Cn1cc(-c2ccccc2Oc2ccccc2)c2cc(C(=O)NCCCCC(=O)Nc3ccccc3N)[nH]c2c1=O,240
4,Cn1cc(-c2cc(C(C)(C)O)ccc2OC2CC2)c2cc(C(=O)NCc3ccc(C(=O)NO)cc3)[nH]c2c1=O,420
5,Cn1cc(-c2cc(C(C)(C)O)ccc2OC2CC2)c2cc(C(=O)NCc3ccc(C(=O)Nc4ccccc4N)cc3)[nH]c2c1=O,40
6,Cn1cc(-c2cc(C(C)(C)O)ccc2Oc2ccc(F)cc2F)c2cc(C(=O)NCCCCCCC(=O)NO)[nH]c2c1=O,250
7,Cn1cc(-c2ccccc2Oc2ccccc2)c2cc(C(=O)NCCCC(=O)NO)[nH]c2c1=O,380
8,CCNC(=O)c1cc2c(-c3cc(C(C)(C)O)ccc3Oc3c(C)cc(F)cc3C)cn(C)c(=O)c2[nH]1 [ABBV-744],250
9,Cn1cc(-c2cc(C(C)(C)O)ccc2OC2CC2)c2cc(C(=O)NCCCCCCC(=O)NO)[nH]c2c1=O,220
10,Cn1cc(-c2ccccc2F)c2cc(C(=O)NCc3ccc(C(=O)Nc4ccccc4N)cc3)[nH]c2c1=O,230
11,COc1ccccc1-c1cn(C)c(=O)c2[nH]c(C(=O)NCc3ccc(C(=O)Nc4ccccc4N)cc3)cc12,200
12,Nc1ccccc1NC(=O)c1ccc(CNC(=O)OCc2cccnc2)cc1 [ENTINOSTAT],240
13,Cn1cc(-c2ccccc2Oc2ccccc2)c2cc(C(=O)NCCCCCC(=O)Nc3ccccc3N)[nH]c2c1=O,70
14,Cn1cc(-c2ccc(F)cc2)c2cc(C(=O)NCc3ccc(C(=O)Nc4ccccc4N)cc3)[nH]c2c1=O,220
15,Cc1sc2c(c1C)C(c1ccc(Cl)cc1)=N[C@@H](CC(=O)Nc1ccc(O)cc1)c1nnc(C)n1-2 [BIRABRESIB],200
16,Cn1cc(-c2ccccc2Oc2ccccc2)c2cc(C(=O)NCCCCCCC(=O)Nc3ccccc3N)[nH]c2c1=O,130

# Biological target: T2, Bromodomain-containing protein 4 (Homo sapiens, UniProt O60885)
# Assay: Inhibition of His-tagged BRD4 bromodomain 2 (unknown origin) using [Lys (5,8,12,16) Ac] H4(1-21) as substrate by fluorescence based assay
# Conditions: not given
row,Compound,IC50 [nM]
1,O=C(CCCCCCC(=O)Nc1ccccc1)NO [VORINOSTAT],> 10000
2,Cn1cc(-c2cccc(F)c2)c2cc(C(=O)NCc3ccc(C(=O)Nc4ccccc4N)cc3)[nH]c2c1=O,75.9
3,COc1ccc(C(C)(C)O)cc1-c1cn(C)c(=O)c2[nH]c(C(=O)NCc3ccc(C(=O)Nc4ccccc4N)cc3)cc12,7
4,Cn1cc(-c2ccccc2Oc2ccccc2)c2cc(C(=O)NCCCCC(=O)Nc3ccccc3N)[nH]c2c1=O,11.3
5,Cn1cc(-c2cc(C(C)(C)O)ccc2OC2CC2)c2cc(C(=O)NCc3ccc(C(=O)NO)cc3)[nH]c2c1=O,6.9
6,Cn1cc(-c2cc(C(C)(C)O)ccc2OC2CC2)c2cc(C(=O)NCc3ccc(C(=O)Nc4ccccc4N)cc3)[nH]c2c1=O,2.1
7,Cn1cc(-c2cc(C(C)(C)O)ccc2Oc2ccc(F)cc2F)c2cc(C(=O)NCCCCCCC(=O)NO)[nH]c2c1=O,7.2
8,Cn1cc(-c2ccccc2C(F)(F)F)c2cc(C(=O)NCc3ccc(C(=O)Nc4ccccc4N)cc3)[nH]c2c1=O,571
9,Cn1cc(-c2ccccc2Oc2ccccc2)c2cc(C(=O)NCCCC(=O)NO)[nH]c2c1=O,103
10,Cn1cc(-c2cc(C(C)(C)O)ccc2OC2CC2)c2cc(C(=O)NCCCCCCC(=O)NO)[nH]c2c1=O,5.8
11,Cn1cc(-c2ccccc2F)c2cc(C(=O)NCc3ccc(C(=O)Nc4ccccc4N)cc3)[nH]c2c1=O,55.3
12,COc1ccccc1-c1cn(C)c(=O)c2[nH]c(C(=O)NCc3ccc(C(=O)Nc4ccccc4N)cc3)cc12,47.6
13,Nc1ccccc1NC(=O)c1ccc(CNC(=O)OCc2cccnc2)cc1 [ENTINOSTAT],> 10000
14,Cn1cc(-c2ccccc2Oc2ccccc2)c2cc(C(=O)NCCCCCC(=O)Nc3ccccc3N)[nH]c2c1=O,8.4
15,Cc1cccc(-c2cn(C)c(=O)c3[nH]c(C(=O)NCc4ccc(C(=O)Nc5ccccc5N)cc4)cc23)c1,105
16,Cn1cc(-c2ccc(F)cc2)c2cc(C(=O)NCc3ccc(C(=O)Nc4ccccc4N)cc3)[nH]c2c1=O,79.9
17,Cn1cc(-c2ccccc2Oc2ccccc2)c2cc(C(=O)NCCCCCCC(=O)Nc3ccccc3N)[nH]c2c1=O,15.4

# Biological target: T2, Bromodomain-containing protein 4
# Assay: Inhibition of His-tagged BRD4 bromodomain 1 (unknown origin) using [Lys (5,8,12,16) Ac] H4(1-21) as substrate by fluorescence based assay
# Conditions: not given
row,Compound,IC50 [nM]
1,O=C(CCCCCCC(=O)Nc1ccccc1)NO [VORINOSTAT],> 10000
2,Cn1cc(-c2cccc(F)c2)c2cc(C(=O)NCc3ccc(C(=O)Nc4ccccc4N)cc3)[nH]c2c1=O,50.9
3,COc1ccc(C(C)(C)O)cc1-c1cn(C)c(=O)c2[nH]c(C(=O)NCc3ccc(C(=O)Nc4ccccc4N)cc3)cc12,3.9
4,Cn1cc(-c2ccccc2Oc2ccccc2)c2cc(C(=O)NCCCCC(=O)Nc3ccccc3N)[nH]c2c1=O,73
5,Cn1cc(-c2cc(C(C)(C)O)ccc2OC2CC2)c2cc(C(=O)NCc3ccc(C(=O)NO)cc3)[nH]c2c1=O,252
6,Cn1cc(-c2cc(C(C)(C)O)ccc2OC2CC2)c2cc(C(=O)NCc3ccc(C(=O)Nc4ccccc4N)cc3)[nH]c2c1=O,7.7
7,Cn1cc(-c2cc(C(C)(C)O)ccc2Oc2ccc(F)cc2F)c2cc(C(=O)NCCCCCCC(=O)NO)[nH]c2c1=O,54
8,Cn1cc(-c2ccccc2C(F)(F)F)c2cc(C(=O)NCc3ccc(C(=O)Nc4ccccc4N)cc3)[nH]c2c1=O,371
9,Cn1cc(-c2ccccc2Oc2ccccc2)c2cc(C(=O)NCCCC(=O)NO)[nH]c2c1=O,142
10,Cn1cc(-c2cc(C(C)(C)O)ccc2OC2CC2)c2cc(C(=O)NCCCCCCC(=O)NO)[nH]c2c1=O,26.2
11,Cn1cc(-c2ccccc2F)c2cc(C(=O)NCc3ccc(C(=O)Nc4ccccc4N)cc3)[nH]c2c1=O,85.9
12,COc1ccccc1-c1cn(C)c(=O)c2[nH]c(C(=O)NCc3ccc(C(=O)Nc4ccccc4N)cc3)cc12,22.6
13,Nc1ccccc1NC(=O)c1ccc(CNC(=O)OCc2cccnc2)cc1 [ENTINOSTAT],> 10000
14,Cn1cc(-c2ccccc2Oc2ccccc2)c2cc(C(=O)NCCCCCC(=O)Nc3ccccc3N)[nH]c2c1=O,583
15,Cc1cccc(-c2cn(C)c(=O)c3[nH]c(C(=O)NCc4ccc(C(=O)Nc5ccccc5N)cc4)cc23)c1,52.8
16,Cn1cc(-c2ccc(F)cc2)c2cc(C(=O)NCc3ccc(C(=O)Nc4ccccc4N)cc3)[nH]c2c1=O,44.1
17,Cn1cc(-c2ccccc2Oc2ccccc2)c2cc(C(=O)NCCCCCCC(=O)Nc3ccccc3N)[nH]c2c1=O,140

# — ChEMBL document CHEMBL4732071, “Discovery of selective HDAC/BRD4 dual inhibitors as epigenetic probes” (Eur J Med Chem, 2021)
